Results from US10479788B2, “Compounds that inhibit MPS1 kinase” (Cancer Research Technology Limited, priority 2012, dated 2019).

Molecular target: full length MPS1 (Homo sapiens (Human), UniProt P33981)
Experiment: Measurement of Inhibition of MPS1 Kinase
Type: biochemical
Details: full length MPS1 12.5 nM or 3 nM, H236 peptide 5 μM, ATP 10 μM, 60 min at room temperature, Caliper EZ reader II
Method: The reaction was carried out for 60 min at room temperature and stopped by the addition of buffer (10 μl) containing 20 mM EDTA, 0.05% (v/v) Brij-35, in 0.1M HEPES-buffered saline (Free acid, Sigma, UK). The plate was read on a Caliper EZ reader II (Caliper Life Sciences).
The % inhibition of the compounds is calculated relative to the means of selected control wells. […] The % inhibitions at each concentration are then fitted to a 4 parameter logistic fit: y=(a+((b−a)/(1+((c/x^d)))) where a=asym min, b=asym max, c=IC50 and d=hill coefficient

full length MPS1, sequence (P33981 whole entry): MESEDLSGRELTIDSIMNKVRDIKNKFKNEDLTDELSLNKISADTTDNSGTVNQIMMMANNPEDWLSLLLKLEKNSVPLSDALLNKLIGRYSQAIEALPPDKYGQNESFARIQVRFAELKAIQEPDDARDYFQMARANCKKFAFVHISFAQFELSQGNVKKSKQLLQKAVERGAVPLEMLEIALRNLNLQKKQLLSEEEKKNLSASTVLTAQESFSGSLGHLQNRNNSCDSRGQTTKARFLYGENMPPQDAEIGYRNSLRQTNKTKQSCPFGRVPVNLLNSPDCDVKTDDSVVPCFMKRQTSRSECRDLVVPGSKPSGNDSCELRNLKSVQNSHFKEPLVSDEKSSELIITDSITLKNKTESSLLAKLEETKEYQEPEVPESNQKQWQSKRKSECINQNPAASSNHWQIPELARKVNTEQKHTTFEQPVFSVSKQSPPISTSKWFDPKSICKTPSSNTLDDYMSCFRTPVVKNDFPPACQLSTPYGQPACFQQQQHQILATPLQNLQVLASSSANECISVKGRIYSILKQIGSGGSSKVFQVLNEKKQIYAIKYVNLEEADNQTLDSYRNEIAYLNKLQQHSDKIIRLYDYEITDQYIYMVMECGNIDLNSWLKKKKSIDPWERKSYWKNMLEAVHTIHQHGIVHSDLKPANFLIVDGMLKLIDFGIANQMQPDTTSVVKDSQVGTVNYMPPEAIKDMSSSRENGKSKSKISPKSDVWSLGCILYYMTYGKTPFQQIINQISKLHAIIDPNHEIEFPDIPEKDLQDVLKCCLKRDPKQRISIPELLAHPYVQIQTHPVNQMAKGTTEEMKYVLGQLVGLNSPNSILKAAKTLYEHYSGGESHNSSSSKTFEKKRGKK

SMILES: COc1cc(-c2cnn(C)c2)ccc1Nc1ncc2ccnc(N3CCCC3C)c2n1 (stereo not shown) [Example 64]
- IC50: 6 nM
